From patent publication US9018258B2, “Substituted 1-benzylcycloalkylcarboxylic acids and the use thereof” (Bayer Intellectual Property GmbH, priority 2010, dated 2015)

Each compound was assayed against T1, sGC (Rattus norvegicus, UniProt P20595) (assay: Action at a recombinant guanylate cyclase reporter cell line (CHO reporter cell)). Conditions: CHO reporter cell in vitro.
T1 construct: expressed in transfected cells; host or cells: CHO reporter cell
Type: cell-based
Method: The cellular action of the compounds according to the invention is determined at a recombinant guanylate cyclase reporter cell line, as described in F. Wunder et al., Anal. Biochem. 339, 104-112 (2005).

T1 sequence (P19686 whole entry partner): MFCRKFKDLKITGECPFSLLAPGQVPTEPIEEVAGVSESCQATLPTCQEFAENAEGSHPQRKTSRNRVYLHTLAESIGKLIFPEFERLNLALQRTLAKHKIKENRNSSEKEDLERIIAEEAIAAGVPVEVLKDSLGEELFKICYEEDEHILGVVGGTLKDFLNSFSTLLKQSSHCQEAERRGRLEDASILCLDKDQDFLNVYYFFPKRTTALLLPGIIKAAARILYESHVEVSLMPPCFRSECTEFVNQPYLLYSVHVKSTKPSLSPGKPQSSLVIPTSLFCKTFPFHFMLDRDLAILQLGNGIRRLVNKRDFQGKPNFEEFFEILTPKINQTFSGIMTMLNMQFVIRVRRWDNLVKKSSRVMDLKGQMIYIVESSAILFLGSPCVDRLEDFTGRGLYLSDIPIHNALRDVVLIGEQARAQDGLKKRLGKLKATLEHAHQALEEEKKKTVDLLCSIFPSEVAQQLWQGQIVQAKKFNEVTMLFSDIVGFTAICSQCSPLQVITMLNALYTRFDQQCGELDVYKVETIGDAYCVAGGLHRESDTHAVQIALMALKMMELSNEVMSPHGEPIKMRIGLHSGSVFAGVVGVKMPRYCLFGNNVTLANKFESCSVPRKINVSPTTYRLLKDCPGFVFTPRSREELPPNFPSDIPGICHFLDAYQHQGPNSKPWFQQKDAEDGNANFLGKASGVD
T1 sequence (P20595 whole entry): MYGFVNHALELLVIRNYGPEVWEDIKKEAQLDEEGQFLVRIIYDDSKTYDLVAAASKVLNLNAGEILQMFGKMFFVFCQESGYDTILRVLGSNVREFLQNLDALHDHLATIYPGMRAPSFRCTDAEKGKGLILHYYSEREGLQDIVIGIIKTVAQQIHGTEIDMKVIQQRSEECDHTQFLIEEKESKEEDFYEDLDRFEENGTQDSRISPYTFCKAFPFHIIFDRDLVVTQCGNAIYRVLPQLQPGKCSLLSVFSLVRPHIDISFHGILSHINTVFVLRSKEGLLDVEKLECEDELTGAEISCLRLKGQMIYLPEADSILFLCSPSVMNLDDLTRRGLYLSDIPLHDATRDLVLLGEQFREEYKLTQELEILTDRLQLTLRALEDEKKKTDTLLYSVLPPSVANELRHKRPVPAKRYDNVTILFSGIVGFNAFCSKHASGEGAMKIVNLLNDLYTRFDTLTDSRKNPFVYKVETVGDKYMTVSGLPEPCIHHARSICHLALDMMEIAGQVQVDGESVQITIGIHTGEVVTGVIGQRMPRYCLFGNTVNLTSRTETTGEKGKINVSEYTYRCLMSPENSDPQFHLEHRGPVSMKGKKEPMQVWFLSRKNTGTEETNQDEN

Going from `Cc1cc(C(C(=O)Nc2cccc(CC3(C(=O)O)CC3)c2)C(C)C(F)(F)F)ccc1Cl` (stereo not shown) [Example 49, 1-(3-{[2-(4-chloro-3-methylphenyl)-4,4,4-trifluoro-3-methylbutanoyl]amino}benzyl)-cyclopropanecarboxylic acid] to `C[C@H]([C@H](C(=O)Nc1cc(CC2(C(=O)O)CC2)ccc1C1CC1)c1ccc(Cl)cc1)C(F)(F)F` [Example 97, 1-(3-{[(2S,3R)-2-(4-chlorophenyl)-4,4,4-trifluoro-3-methylbutanoyl]amino}-4-cyclopropyl-benzyl)cyclopropanecarboxylic acid], the “MEC (minimum effective concentration), sGC-activating activity in the CHO reporter cell” value (“MEC (minimum effective concentration)” for short) falls from 30 nM to 10 nM (3-fold).

Going from `C[C@H]([C@H](C(=O)Nc1c(Cl)ccc(CC2(C(=O)O)CC2)c1F)c1ccc(Cl)cc1)C(F)(F)F` [Example 52, 1-(4-Chloro-3-{[(2S,3R)-2-(4-chlorophenyl)-4,4,4-trifluoro-3-methylbutanoyl]amino}-2-fluorobenzyl)cyclopropanecarboxylic acid] to `C[C@H]([C@H](C(=O)Nc1cc(CC2(C(=O)O)CC2(F)F)ccc1Cl)c1ccc(Cl)cc1)C(F)(F)F` (stereo partly drawn) [Example 69, 1-(4-Chloro-3-{[(2S,3R)-2-(4-chlorophenyl)-4,4,4-trifluoro-3-methylbutanoyl]amino}benzyl)-2,2-difluorocyclopropanecarboxylic acid], the “MEC (minimum effective concentration)” value falls from 10 nM to 3 nM (3.3-fold).

`C=Cc1ccc([C@@H](C(=O)Nc2cc(CC3(C(=O)O)CC3)ccc2F)[C@@H](C)C(F)(F)F)cc1` [Example 63, (+)-1-(4-Fluoro-3-{[(2S,3R)-4,4,4-trifluoro-3-methyl-2-(4-vinylphenyl)butanoyl]amino}benzyl)-cyclopropanecarboxylic acid] and `CCC(c1ccc(Cl)c(NC(=O)[C@H](c2ccc(Cl)cc2)[C@@H](C)C(F)(F)F)c1)C1(C(=O)O)CC1` (stereo partly drawn) [Example 98, 1-[1-(4-Chloro-3-{[(2S,3R)-2-(4-chlorophenyl)-4,4,4-trifluoro-3-methylbutanoyl]amino}phenyl)-propyl]cyclopropanecarboxylic acid] are the same in “MEC (minimum effective concentration)” value: 0.3 nM for the first, 0.3 nM for the second.

With `C[C@H]([C@H](C(=O)Nc1cc(C(C)(O)C2(C(=O)O)CC2)ccc1Cl)c1ccc(Cl)cc1)C(F)(F)F` (stereo partly drawn) [Example 111, 1-[1-(4-chloro-3-{[(2S,3R)-2-(4-chlorophenyl)-4,4,4-trifluoro-3-methylbutanoyl]amino}phenyl)-1-hydroxyethyl]cyclopropanecarboxylic acid] the “MEC (minimum effective concentration)” value was 30 nM.
